Measurements reported in the NIST ThermoML archive (doi:10.1021/je700020t).
Numbers after ± are expanded uncertainties.

Conditions: 101.33 kPa, Liquid

Compound	mass density (253.15 K) [kg/m3]	mass density (263.15 K) [kg/m3]	mass density (273.15 K) [kg/m3]	mass density (283.15 K) [kg/m3]	mass density (293.15 K) [kg/m3]	mass density (298.15 K) [kg/m3]	mass density (323.15 K) [kg/m3]	mass density (343.15 K) [kg/m3]	mass density (363.15 K) [kg/m3]	mass density (383.15 K) [kg/m3]	mass density (324.15 K) [kg/m3]	mass density (358.15 K) [kg/m3]
CCCCI [1-iodobutane]	1670.9 ± 3.3	1655.2 ± 3.2	1639.1 ± 3.1	1623.7 ± 3	1607.6 ± 2.9	1599.8 ± 2.9	1558.7 ± 2.9	1525.7 ± 2.9	1492 ± 2.9	1457.2 ± 2.9		
CCCI [1-iodopropane]	1820.9 ± 1.8	1802.5 ± 1.7	1784.5 ± 1.7	1765.9 ± 1.6	1747.8 ± 1.5			1652.2 ± 1.6			1688.3 ± 1.6	1622.3 ± 1.7
